From ChEMBL document CHEMBL4483862, “Open-source discovery of chemical leads for next-generation chemoprotective antimalarials” (2018)

Test system: Plasmodium berghei
Experiment: Luciferase/luciferin-expressing antifolate-resistant parasites were used to infect a culture of HepG2 cells that were pre-incubated with compounds. Infected hepatocytes emit light due to the luciferase reaction. Assay results are presented as the percent inhibition of light emission compared to control. […]
Format: functional
Conditions: sporozoite; for IC90: read-out: LUCIFERASE INFECTION ASSAY - IC90
[1] = read-out: LUCIFERASE INFECTION ASSAY - IC50

Row | Structure (SMILES) | IC90 [µM] | IC50 [1] [µM] | further results
1 | O=C(c1c(-c2ccccc2)c2c3n(c(CN(C(=O)C4CC4)c4ccccc4)nn13)CCCC2)C1CC1 | > 10 |  | IC50 (HEPG2TOX_HILL_SLOPE 2.64, HEPG2TOX_R_SQUARED 0.879, read-out: LUCIFERASE INFECTION ASSAY - IC50): > 10 µM
2 | CCOc1ncccc1C(=O)NCC(c1ccc(OC)cc1)N1CCCCC1 (stereo unspecified) | > 10 | > 10 | 
3 | NC(=O)c1ccsc1NC(=O)Cc1coc2cc3c(cc12)CCC3 | 3.88 |  | IC50 (FFLUC_HILL_SLOPE 3.24, FFLUC_R_SQUARED 0.678, PBLUC_HILL_SLOPE 11.8, PBLUC_R_SQUARED 0.833, read-out: LUCIFERASE INFECTION ASSAY - IC50): 3.22 µM
4 | O=C(CCCNC(=O)c1ccsc1)NNC(=O)c1ccccc1O | > 10 |  | IC50 (PBLUC_HILL_SLOPE 9.95, PBLUC_R_SQUARED 0.0276, read-out: LUCIFERASE INFECTION ASSAY - IC50): > 10 µM
5 | CNC(=O)c1ccc(C)c(C)c1 | > 10 | > 10 | 
6 | CC(C)S(=O)(=O)c1csc(NC(=O)Nc2ccc(Cl)cc2)c1 | 3.33 |  | IC50 (PBLUC_HILL_SLOPE 17.2, PBLUC_R_SQUARED 0.385, read-out: LUCIFERASE INFECTION ASSAY - IC50): 2.93 µM
7 | Cc1cccc2sc(NC(=O)c3cccc(S(=O)(=O)N4CCc5ccccc54)c3)nc12 | > 10 | > 10 | 
8 | COc1ccc(-c2cnc3cnc(-c4cccc(C(=O)NCCO)c4)cn23)cc1 | 8.22 |  | IC50 (PBLUC_HILL_SLOPE 19.3, PBLUC_R_SQUARED 0.197, read-out: LUCIFERASE INFECTION ASSAY - IC50): 7.33 µM
9 | OCc1ccc(-c2ccc3ncc(-c4cccnc4)n3n2)cc1 | 1.91 |  | IC50 (HEPG2TOX_HILL_SLOPE 8.03, HEPG2TOX_R_SQUARED 0.878, PBLUC_HILL_SLOPE 5.07, PBLUC_R_SQUARED 0.745, read-out: LUCIFERASE INFECTION ASSAY - IC50): 1.24 µM
10 | O=S(=O)(c1ccc(N=C2NN=C(c3ccc4ccccc4c3)CS2)cc1)N1CCOCC1 | 9.33 | 4.82 | 
11 | CCCCCCCc1ccc(NC(=O)Nc2ccc(F)cc2)cc1 | > 10 |  | IC50 (FFLUC_HILL_SLOPE 255, FFLUC_R_SQUARED 0.421, PBLUC_HILL_SLOPE 1.52, PBLUC_R_SQUARED 0.706, read-out: LUCIFERASE INFECTION ASSAY - IC50): 2.49 µM
12 | O=c1c2c(-c3ccccc3)csc2nc2c3ccccc3c(Cl)nn12 | > 10 | > 10 | 
13 | CC(=O)c1cccc(-c2cnc3ccc(-c4cccnc4)nn23)c1 | 4.84 |  | IC50 (HEPG2TOX_HILL_SLOPE 1.81, HEPG2TOX_R_SQUARED 0.991, PBLUC_HILL_SLOPE 1.06, PBLUC_R_SQUARED 0.743, read-out: LUCIFERASE INFECTION ASSAY - IC50): 0.606 µM
14 | Cc1nnc(SCc2cc(=O)n3nc(C)c(-c4ccc(F)cc4)c3[nH]2)s1 | > 8.52 |  | IC50 (PBLUC_HILL_SLOPE 8.42, PBLUC_R_SQUARED 0.168, read-out: LUCIFERASE INFECTION ASSAY - IC50): 7.52 µM
15 | CCOC(=O)c1c(C)[nH]c(C(=O)Nc2nc(-c3ccc(C4CCCCC4)cc3)cs2)c1C | 9.4 |  | IC50 (HEPG2TOX_HILL_SLOPE 12.2, HEPG2TOX_R_SQUARED 0.959, PBLUC_HILL_SLOPE 12.5, PBLUC_R_SQUARED 0.559, read-out: LUCIFERASE INFECTION ASSAY - IC50): 7.88 µM
16 | COc1ncccc1C(=O)Nc1ccccc1Cl | > 12.6 |  | IC50 (HEPG2TOX_HILL_SLOPE 9.95, HEPG2TOX_R_SQUARED 0.955, PBLUC_HILL_SLOPE 2.98, PBLUC_R_SQUARED 0.38, read-out: LUCIFERASE INFECTION ASSAY - IC50): 12.2 µM
17 | Nc1nc(N)nc(COC(=O)c2c3c(nc4ccccc24)/C(=C/c2c(F)cccc2Cl)CC3)n1 | > 10 |  | IC50 (HEPG2TOX_HILL_SLOPE 0.332, HEPG2TOX_R_SQUARED 0.762, PBLUC_HILL_SLOPE 7.86, PBLUC_R_SQUARED 0.0482, read-out: LUCIFERASE INFECTION ASSAY - IC50): > 10 µM
18 | Cn1ccnc1Sc1cnc(SCC(=O)c2ccc(Cl)cc2)nc1-c1ccccc1 | > 7.28 | > 7.28 | 
19 | CN(Cc1ccccc1N1CCCCC1)C(=O)c1ccc(NC(=O)C2CC2)cc1 | 3.37 | 2.9 | 
20 | OCc1ccc(-c2ccc3ncc(-c4cccc(CO)c4)n3n2)cc1 | 2.83 |  | IC50 (HEPG2TOX_HILL_SLOPE 2.34, HEPG2TOX_R_SQUARED 0.973, PBLUC_HILL_SLOPE 2.94, PBLUC_R_SQUARED 0.59, read-out: LUCIFERASE INFECTION ASSAY - IC50): 1.34 µM
21 | COc1cc(/C=N/Nc2ccc(C(F)(F)F)cn2)ccc1OS(=O)(=O)c1ccc(C)c([N+](=O)[O-])c1 | > 10 |  | IC50 (FFLUC_HILL_SLOPE 3.31, FFLUC_R_SQUARED 0.75, read-out: LUCIFERASE INFECTION ASSAY - IC50): > 10 µM
22 | Clc1ccccc1-c1cnc2sc(NCc3cccs3)nn12 | > 9.51 |  | IC50 (FFLUC_HILL_SLOPE 0.509, FFLUC_R_SQUARED 0.232, read-out: LUCIFERASE INFECTION ASSAY - IC50): > 9.51 µM

Row | Structure (SMILES) | IC90 [µM] | IC50 [1] [µM] | further results
23 | Cc1ccccc1-c1cn2c(-c3ccc(CO)cc3)cnc2cn1 | 10.4 |  | IC50 (HEPG2TOX_HILL_SLOPE 0.675, HEPG2TOX_R_SQUARED 0.753, PBLUC_HILL_SLOPE 1.37, PBLUC_R_SQUARED 0.689, read-out: LUCIFERASE INFECTION ASSAY - IC50): 2.1 µM
24 | O=C(Nc1nc2c(s1)CCCC2)c1cc(F)c(F)c(F)c1F | 0.624 | 0.081 | 
25 | CC(C(OC(=O)c1ccc(S(=O)(=O)N(C)C)cc1)c1ccccc1)N(C)S(=O)(=O)c1ccc(Cl)cc1 (stereo unspecified) | > 10 |  | IC50 (FFLUC_HILL_SLOPE 14.7, FFLUC_R_SQUARED 0.389, PBLUC_HILL_SLOPE 2.36, PBLUC_R_SQUARED 0.776, read-out: LUCIFERASE INFECTION ASSAY - IC50): 7.17 µM
26 | Cc1ccc(Cn2ccs/c2=N/C(=O)COC(=O)CCN2C(=O)C3CC=CCC3C2=O)cc1 (stereo unspecified) | > 10 | > 10 | 
27 | COc1ccc(C(=O)NCC#Cc2cccc(C(F)(F)F)c2)cn1 | > 10 |  | IC50 (FFLUC_HILL_SLOPE 300, FFLUC_R_SQUARED 0.355, read-out: LUCIFERASE INFECTION ASSAY - IC50): > 10 µM
28 | Cc1cc(/C=C/C(=O)Nc2nccs2)c(C)n1-c1ccccc1 | 3.27 |  | IC50 (PBLUC_HILL_SLOPE 1.4, PBLUC_R_SQUARED 0.69, read-out: LUCIFERASE INFECTION ASSAY - IC50): 0.681 µM
29 | Cc1ccc(-c2nn(CN(C)CC(=O)NC(C)C)c(=S)n2C)cc1 | > 10 | > 10 | 
30 | Cc1cc(C)c(C#N)c(SCC(=O)N(C)Cc2cnn(-c3ccccc3)c2)n1 | > 10 |  | IC50 (PBLUC_HILL_SLOPE 0.688, PBLUC_R_SQUARED 0.271, read-out: LUCIFERASE INFECTION ASSAY - IC50): 4.09 µM
31 | c1ccc2cc(C3=NNC(=NC4CC4)SC3)ccc2c1 | 0.0194 |  | IC50 (FFLUC_HILL_SLOPE 2.37, FFLUC_R_SQUARED 0.781, HEPG2TOX_HILL_SLOPE 1.63, HEPG2TOX_R_SQUARED 0.913, PBLUC_HILL_SLOPE 5.38, PBLUC_R_SQUARED 0.229, read-out: LUCIFERASE INFECTION ASSAY - IC50): 0.0129 µM
32 | Cc1csc(NC(=O)Nc2ccc(C(F)(F)F)cc2)c1 | > 11 | > 11 | 
33 | CNC(=O)NC(=O)c1sc(SC)c(-c2ccon2)c1C | > 10.6 | > 10.6 | 
34 | CCOC(=O)Cn1c(=O)c2c3c(sc2n(Cc2ccccc2)c1=O)CCCC3 | > 8.28 |  | IC50 (FFLUC_HILL_SLOPE 1.15, FFLUC_R_SQUARED 0.544, PBLUC_HILL_SLOPE 1.19, PBLUC_R_SQUARED 0.498, read-out: LUCIFERASE INFECTION ASSAY - IC50): 3.9 µM
35 | O=C(CNC(=O)c1ccc(Oc2ccccc2)cc1)Nc1nccs1 | > 10 |  | IC50 (PBLUC_HILL_SLOPE 15.5, PBLUC_R_SQUARED 0.469, read-out: LUCIFERASE INFECTION ASSAY - IC50): 9.34 µM
36 | C(=N\Nc1ncnc2sc3c(c12)CCCC3)/c1c(-c2ccccc2)n(-c2ccccc2)c2ccccc12 | > 10 | > 10 | 
37 | CCOc1ccc2c(c1)C(=O)C(=O)N2Cc1ccc(OC)cc1 | > 10.6 |  | IC50 (PBLUC_HILL_SLOPE 0.721, PBLUC_R_SQUARED 0.0969, read-out: LUCIFERASE INFECTION ASSAY - IC50): > 10.6 µM
38 | COc1ccc(-c2nc(C=C3C(=O)c4ccccc4C3=O)cs2)cc1 | > 10 | > 10 | 
39 | O=C(NC1CCN(Cc2ccccc2)C1)c1cc2cc(Br)ccc2[nH]1 (stereo unspecified) | > 10 |  | IC50 (FFLUC_HILL_SLOPE 15.5, FFLUC_R_SQUARED 0.545, HEPG2TOX_HILL_SLOPE 1.06, HEPG2TOX_R_SQUARED 0.919, PBLUC_HILL_SLOPE 3.35, PBLUC_R_SQUARED 0.069, read-out: LUCIFERASE INFECTION ASSAY - IC50): 7.09 µM
40 | O=C(NCCCn1cnc2ccccc21)c1ccccc1Nc1ccccc1 | > 10 |  | IC50 (PBLUC_HILL_SLOPE 3.77, PBLUC_R_SQUARED 0.592, read-out: LUCIFERASE INFECTION ASSAY - IC50): 7.09 µM
41 | c1ccc(CN2CCC(Nc3ncnc4sccc34)CC2)cc1 | > 10 | 8.87 | 
42 | Cc1nc(NC(=O)c2cnn(C)c2)sc1Cc1ccccc1Cl | 3.3 |  | IC50 (HEPG2TOX_HILL_SLOPE 2.29, HEPG2TOX_R_SQUARED 0.901, PBLUC_HILL_SLOPE 11.8, PBLUC_R_SQUARED 0.668, read-out: LUCIFERASE INFECTION ASSAY - IC50): 2.74 µM
43 | CCNC(=O)NC(=O)CNC(c1ccc(CC)cc1)c1cccc(F)c1 (stereo unspecified) | > 10 |  | IC50 (HEPG2TOX_HILL_SLOPE 2.54, HEPG2TOX_R_SQUARED 0.274, read-out: LUCIFERASE INFECTION ASSAY - IC50): > 10 µM
